Measured values reported in patent publication US20260297042A1, “BIARYLAMIDE DERIVATIVES AND THEIR USE AS PKMYT1 INHIBITORS” (CANCER RESEARCH TECHNOLOGY LIMITED, priority 2023, published 2026).

What was measured:
WEE1 = biological target: T1, WEE1 (Homo sapiens, UniProt P30291); assay: Selectivity versus WEE1 assay (ADP-Glo enzymatic assay); type: biochemical; conditions: for IC50: ADP-Glo; for PKMYT1 vs. WEE1 selectivity: fold difference in selectivity for PKMYT1 over WEE1
T1 construct: purchased Thermo Fisher PR7373A
T1 sequence (P30291 whole entry): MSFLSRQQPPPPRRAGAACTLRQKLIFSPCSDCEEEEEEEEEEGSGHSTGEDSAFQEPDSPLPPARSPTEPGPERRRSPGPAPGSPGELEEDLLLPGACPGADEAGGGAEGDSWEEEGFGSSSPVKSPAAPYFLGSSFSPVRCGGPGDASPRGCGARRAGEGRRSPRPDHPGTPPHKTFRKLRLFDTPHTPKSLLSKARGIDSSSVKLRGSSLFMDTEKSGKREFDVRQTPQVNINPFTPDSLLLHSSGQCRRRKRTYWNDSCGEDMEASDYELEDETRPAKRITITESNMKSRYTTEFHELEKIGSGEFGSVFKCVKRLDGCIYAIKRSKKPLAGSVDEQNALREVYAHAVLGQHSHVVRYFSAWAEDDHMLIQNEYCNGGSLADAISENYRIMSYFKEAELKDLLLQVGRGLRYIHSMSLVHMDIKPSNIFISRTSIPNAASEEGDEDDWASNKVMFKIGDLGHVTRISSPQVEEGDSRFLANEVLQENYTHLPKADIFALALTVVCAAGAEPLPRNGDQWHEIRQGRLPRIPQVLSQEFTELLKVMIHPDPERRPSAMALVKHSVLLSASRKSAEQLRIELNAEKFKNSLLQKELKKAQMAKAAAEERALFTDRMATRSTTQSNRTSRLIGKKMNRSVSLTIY
Method in brief: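 ADP-Glo luminescent read-out after a 60-min, 26 °C kinase reaction of 15 nM WEE1 with 30 µM ATP, in HEPES pH 7.5 buffer containing MgCl2, EGTA, Brij-35 and 1% DMSO. IC50 accepted only when replicate values agree within 3-fold and curve fit r2 exceeds 0.9.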

Human PKMYT1 = biological target: T2, Human PKMYT1 (Homo sapiens, UniProt Q99640); assay: PKMYT1 biochemical ADP-Glo enzymatic assay
T2 construct: Human PKMYT1 75-362 was cloned as a TEV cleavable 6xHis fusion; 6xHis (TEV cleavable) (cleaved yes); made in house; host or cells: bacterial cells
T2 sequence (Q99640 75-362): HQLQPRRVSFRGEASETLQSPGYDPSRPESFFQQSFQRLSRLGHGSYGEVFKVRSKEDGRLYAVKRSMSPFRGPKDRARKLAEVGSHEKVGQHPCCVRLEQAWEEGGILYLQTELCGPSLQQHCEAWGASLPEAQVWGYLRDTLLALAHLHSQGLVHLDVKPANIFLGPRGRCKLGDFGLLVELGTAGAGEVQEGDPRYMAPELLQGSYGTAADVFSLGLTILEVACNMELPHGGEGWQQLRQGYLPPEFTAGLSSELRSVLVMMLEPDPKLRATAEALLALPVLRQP
Method in brief: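 IC50 values come from 10-point 3-fold series, with replicates required within 3-fold and r2 >0.9. ADP formed by PKMYT1 intrinsic ATPase (500 uM ATP, 60 min, 26° C.) was quantified by ADP-Glo luminescence. The enzyme was the TEV-cleaved kinase domain 75-362 at 15 nM, in HEPES pH 7.5 buffer.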

[1] = 15 nM WEE1, 60 minutes at 26° C., banded
[2] = banded, ">N" = at least in this band but could be higher
[3] = ADP-Glo, 15 nM PKMYT1 kinase domain, 500 µM ATP, 60 minutes at 26° C., banded
[4] = PKMYT1 kinase domain 15 nM, ADP-Glo, banded values

| SMILES | IC50 (WEE1; [1]) [nM] | PKMYT1 vs. WEE1 selectivity (WEE1; [2]) | IC50 (Human PKMYT1; [3]) [nM] | further results |
| --- | --- | --- | --- | --- |
| Cc1ccc(O)c(C)c1NC(=O)c1cnc(NCC2CCN(C(=O)CC(C)(C)O)CC2)s1 [BAA-215, N-(3-hydroxy-2,6-dimethyl-phenyl)-2-[[1-(3-hydroxy-3-methyl-butanoyl)-4-piperidyl]methylamino]thiazole-5-carboxamide] | > 11000 | >X (100-<1000 fold) | 50 to 1000 |  |
| Cc1ccc(O)c(Br)c1NC(=O)c1cnc(Nc2ccn(C)n2)s1 [BAA-468, N-(2-bromo-3-hydroxy-6-methyl-phenyl)-2-[(1-methylpyrazol-3-yl)amino]thiazole-5-carboxamide] |  |  |  | IC50 (WEE1; WEE1 15 nM, banded values): 1000 to 11000 nM; PKMYT1 vs. WEE1 selectivity (WEE1; banded): X (100-<1000 fold); IC50 (Human PKMYT1; [4]): < 50 nM |
| Cc1ccc(O)c(C)c1NC(=O)c1cnc(Nc2ccn(CC(=O)N3CC[C@H](O)C3)n2)s1 [BAA-162, N-(3-hydroxy-2,6-dimethyl-phenyl)-2-[1-[2-[(3S)-3-hydroxypyrrolidin-1-yl]-2-oxo-ethyl]pyrazol-3-ylamino]thiazole-5-carboxamide] | > 11000 | Y (1000-5000 fold) | < 50 |  |
| CCC(C(=O)N(C)C)n1ccc(Nc2ncc(C(=O)Nc3c(C)ccc(O)c3C)s2)n1 (stereo not drawn) [BAA-507, 2-((1-(1-(dimethylamino)-1-oxobutan-2-yl)-1H-pyrazol-3-yl)amino)-N-(3-hydroxy-2,6-dimethylphenyl)thiazole-5-carboxamide] |  |  |  | IC50 (WEE1; WEE1 15 nM, banded values): > 11000 nM; PKMYT1 vs. WEE1 selectivity (WEE1; banded): X (100-<1000 fold); IC50 (Human PKMYT1; [4]): < 50 nM |
| Cc1ccc(O)c(C)c1NC(=O)c1cnc(Nc2ccc(S(=O)(=O)C(F)(F)F)cc2)s1 [BAA-285, N-(3-hydroxy-2,6-dimethylphenyl)-2-((4. ((trifluoromethyl)sulfonyl)phenyl)amino) thiazole-5-carboxamide] | > 11000 | W (10-<100 fold) | 1000 to 11000 |  |
| Cc1ccc(O)c(C)c1NC(=O)c1cnc(Nc2cc(C(N)=O)nn2C)s1 [BAA-131, 2-[(5-Carbamoyl-2-methyl-pyrazol-3-yl)amino]-N-(3-hydroxy-2,6-dimethyl-phenyl)thiazole-5-carboxamide] | > 11000 | Y (1000-5000 fold) | < 50 |  |
| CCc1ccccc1Nc1ncc(C(=O)Nc2c(C)ccc(O)c2C)s1 [BAA-484, 2-((2-ethylphenyl)amino)-N-(3-hydroxy-2,6-dimethylphenyl)thiazole-5-carboxamide] |  |  |  | IC50 (WEE1; WEE1 15 nM, banded values): > 11000 nM; PKMYT1 vs. WEE1 selectivity (WEE1; banded): X (100-<1000 fold); IC50 (Human PKMYT1; [4]): 50 to 1000 nM |
| CCN(CC)C(=O)N1CC[C@@H](n2ccc(Nc3ncc(C(=O)Nc4c(C)ccc(O)c4C)s3)n2)C1 [BAA-112, 2-[[1-[(3R)-1-(Diethylcarbamoyl)pyrrolidin-3-yl]pyrazol-3-yl]amino]-N-(3-hydroxy-2,6-dimethyl-phenyl)thiazole-5-carboxamide] | > 11000 | >Y (1000-5000 fold) | 50 to 1000 |  |
| Cc1ccc(O)c(C)c1NC(=O)c1cnc(NCc2cn[nH]c2)s1 [BAA-360, 2-(((1H-pyrazol-4-yl)methyl)amino)-N-(3-hydroxy-2,6-dimethylphenyl) thiazole-5-carboxamide] | > 11000 | Y (1000-5000 fold) | < 50 |  |
| Cc1ccc(O)c(C)c1NC(=O)c1cnc(Nc2ccc(F)cc2F)s1 [BAA-277, 2-((2,4-difluorophenyl)amino)-N-(3-hydroxy-2,6-dimethylphenyl)thiazole-5-carboxamide] | > 11000 | X (100-<1000 fold) | 50 to 1000 |  |
| Cc1ccc(O)c(C)c1NC(=O)c1cnc(NCCCN2CCS(=O)(=O)CC2)s1 [BAA-072, 2-[3-(1,1-dioxo-1,4-thiazinan-4-yl)propylamino]-N-(3-hydroxy-2,6-dimethyl-phenyl)thiazole-5-carboxamide] | > 11000 | >X (100-<1000 fold) | 50 to 1000 |  |
| Cc1ccc(O)c(C)c1NC(=O)c1cnc(Nc2ccn(C3CCCOC3)n2)s1 (stereo not drawn) [BAA-036, N-(3-hydroxy-2,6-dimethyl-phenyl)-2-[(1-tetrahydropyran-3-ylpyrazol-3-yl)amino]thiazole-5-carboxamide] | > 11000 | Z (>5000 fold) | < 50 |  |
| Cc1ccc(O)c(C)c1NC(=O)c1cnc(Nc2ccn(CC(=O)NCCN3CCN(C(=O)OC(C)(C)C)CC3)n2)s1 [BAA-158] | > 11000 | X (100-<1000 fold) | 50 to 1000 |  |
| Cc1ccc(O)c(C)c1NC(=O)c1cnc(Nc2cc(C)n(CC(=O)N3CCCC3)n2)s1 [BAA-203] | > 11000 | Y (1000-5000 fold) | < 50 |  |
| Cc1ccc(O)c(C)c1NC(=O)c1cnc(Nc2cc(C(C)(C)O)n(C)n2)s1 [BAA-256, N-(3-hydroxy-2,6-dimethylphenyl)-2-((5-(2-hydroxypropan-2-yl)-1-methyl-1H-pyrazol-3-yl)amino)thiazole-5-carboxamide] | 1000 to 11000 | W (10-<100 fold) | < 50 |  |
| Cc1nc(CNc2ncc(C(=O)Nc3c(C)ccc(O)c3C)s2)no1 [BAA-364, N-(3-hydroxy-2,6-dimethylphenyl)-2-(((5-methyl-1,2,4-oxadiazol-3-yl)methyl)amino) thiazole-5-carboxamide] | > 11000 | W (10-<100 fold) | 1000 to 11000 |  |
| CCC(=O)NCCCNc1ncc(C(=O)Nc2c(C)ccc(O)c2C)s1 [BAA-076, N-(3-hydroxy-2,6-dimethyl-phenyl)-2-[3-(propanoylamino)propylamino]thiazole-5-carboxamide] | > 11000 | >W (10-<100 fold) | 1000 to 11000 |  |
| Cc1ccc(O)c(C)c1NC(=O)c1cnc(Nc2nn(C)c3c2CCC3)s1 [BAA-247, N-(3-hydroxy-2,6-dimethylphenyl)-2-((1-methyl-1,4,5,6-tetrahydrocyclopenta[c]pyrazol-3-yl)amino)thiazole-5-carboxamide] | > 11000 | Y (1000-5000 fold) | 50 to 1000 |  |
| Cc1ccc(O)c(C)c1NC(=O)c1cnc(N)s1 [BAA-001, 2-Amino-N-(3-hydroxy-2,6-dimethyl-phenyl)thiazole-5-carboxamide] | > 11000 | X (100-<1000 fold) | 50 to 1000 | IC50 (Human PKMYT1; PKMYT1 biochemical ADP-Glo enzymatic assay, Comparison Data 1): 327 nM; improvement in PKMYT1 IC50 as compared to REF-001 (Human PKMYT1; vs REF-001): 163 fold; improvement in PKMYT1 IC50 as compared to REF-002 (Human PKMYT1; vs REF-002): 82 fold |
| Cc1nc(Cl)cc(Nc2ncc(C(=O)Nc3c(C)ccc(O)c3C)s2)n1 [BAA-436, 2-((6-chloro-2-methylpyrimidin-4-yl)amino)-N-(3-hydroxy-2,6-dimethylphenyl)thiazole-5-carboxamide] |  |  |  | IC50 (WEE1; WEE1 15 nM, banded values): > 11000 nM; PKMYT1 vs. WEE1 selectivity (WEE1; banded): Z (>5000 fold); IC50 (Human PKMYT1; [4]): < 50 nM |
| Cc1cc(Nc2ccc(F)cc2)nnc1Nc1ncc(C(=O)Nc2c(C)ccc(O)c2C)s1 [BAA-324, 2-((6-((4-fluorophenyl)amino)-4-methylpyridazin-3-yl)amino)-N-(3-hydroxy-2,6-dimethylphenyl)thiazole-5-carboxamide] | > 11000 | X (100-<1000 fold) | 50 to 1000 |  |
| CCNC(=O)N1CC[C@@H](n2ccc(Nc3ncc(C(=O)Nc4c(C)ccc(O)c4C)s3)n2)C1 [BAA-109, 2-[[1-[(3R)-1-(Ethylcarbamoyl)pyrrolidin-3-yl]pyrazol-3-yl]amino]-N-(3-hydroxy-2,6-dimethyl-phenyl)thiazole-5-carboxamide] | > 11000 | >X (100-<1000 fold) | 50 to 1000 |  |
| Cc1ccc(O)c(C)c1NC(=O)c1cnc(Nc2ccn(CC(=O)NCC(C)(C)O)n2)s1 [BAA-146] | > 11000 | Y (1000-5000 fold) | < 50 |  |
| Cc1ccc(O)c(C)c1NC(=O)c1cnc(Nc2ccn(CC(=O)N3CCCCC3)n2)s1 [BAA-149, N-(3-hydroxy-2,6-dimethyl-phenyl)-2-[[1-[2-oxo-2-(1-piperidyl)ethyl]pyrazol-3-yl]amino]thiazole-5-carboxamide] | > 11000 | Y (1000-5000 fold) | < 50 |  |
| Cc1ccc(O)c(C)c1NC(=O)c1cnc(Nc2ccn(CC(=O)N3CC(F)(F)C3)n2)s1 [BAA-196] | > 11000 | Y (1000-5000 fold) | < 50 |  |
| CCN(CCC#N)C(=O)Cn1cc(C)c(Nc2ncc(C(=O)Nc3c(C)ccc(O)c3C)s2)n1 [BAA-532, 2-((1-(2-((2-cyanoethyl)(ethyl)amino)-2-oxoethyl)-4-methyl-1H-pyrazol-3-yl)amino)-N-(3-hydroxy-2,6-dimethylphenyl)thiazole-5-carboxamide] |  |  |  | IC50 (WEE1; WEE1 15 nM, banded values): 1000 to 11000 nM; PKMYT1 vs. WEE1 selectivity (WEE1; banded): X (100-<1000 fold); IC50 (Human PKMYT1; [4]): < 50 nM |
